Measurements published in article PMC9862409 (Pharmaceutics, 2023).
Converted amounts (≈) assume the structure as drawn.

Assays:
[1] = In vitro drug release, dialysis bag diffusion method; type: physicochemical; details: after 6 h; PBS pH 7.4, 37 °C
Protocol: The dissolution medium was phosphate buffer saline (PBS) (pH 7.4), which mimics physiological pH. […] Aliquots of 3 mL were taken from the dissolution medium at predefined time points at 0.5, 1, 2, 3, 4, 5, 6, 7, 8, 10, 12, 24, 36, and finally at 48 h. The sink conditions were maintained by immediately replenishing the equivalent volume of fresh PBS (pH 7.4) after each aliquot withdrawal. […] The study was performed in triplicate and was graphically presented as the cumulative percentage of drug release versus time. Data from the in vitro drug release study was further analyzed using different kinetic models to determine the drug release pattern.
Statistical analysis of in vitro drug release kinetic models was carried out using one-way analysis of variance (ANOVA) followed by Tukey’s Multiple Comparison post hoc test; p ≤ 0.05. […] Analyses were done using GraphPad Prism 6.01 (San Diego, CA, USA).

mushroom tyrosinase = assay: Anti-tyrosinase assay; type: biochemical
Protocol: For the anti-tyrosinase assay, mushroom tyrosinase (5600 units/mL) was incubated at 37 °C for 15 min along with tested samples or standard inhibitor kojic acid (1.4 mg/mL) before the addition of the substrate 1 mM L-DOPA. Afterward, the optical density of the formed dopachrome was analyzed at 475 nm. Various concentrations of the tested samples (75–500 µg/mL) were used. All tests were conducted in triplicate. The enzyme inhibition activity was expressed in percentage using the following equation: (5) Enzyme inhibition activity %=Optical density of control – Optical density of sample/Optical density of control×100
Statistical analysis of in vitro drug release kinetic models was carried out using one-way analysis of variance (ANOVA) followed by Tukey’s Multiple Comparison post hoc test; p ≤ 0.05. Moreover, in vitro skin-related enzyme inhibitory assays were carried out in triplicates, and results were expressed as mean ± standard deviation. A non-linear regression curve was used to calculate IC50. An unpaired t-test was used for statistical comparison between the two groups. p < 0.05 is considered statistically significant. Analyses were done using GraphPad Prism 6.01 (San Diego, CA, USA).

[2] = molecular target: collagenase type 1 from Clostridium histolyticum; assay: Anti-collagenase assay; type: biochemical; details: +ve control = EDTA
Protocol: For the anti-collagenase, collagenase type 1 from Clostridium histolyticum (1 mg/mL) buffer (pH 7.4) along with tested samples or standard inhibitor ethylenediamine tetraacetic acid (EDTA) (1.4 mg/mL) were incubated at 37 °C for 20 min prior to the addition of 100 µL of the substrate 2-furanacryloyl-l-leucylglycyl-l-prolyl-l-alanine (FALGPA). The mixture was then incubated at 37 °C for an additional 1 h before the addition of 200 µL of 2% ninhydrin in 200 mM citrate buffer (pH 5) and placed in a water bath for 5 min. Afterward, the solution was left to cool down completely. Afterwards 200 µL of 50% isopropanol was added, and the optical densities were analyzed at 540 nm. Various concentrations of the tested samples (25–300 µg/mL) were used.

[3] = system: methicillin-resistant Staphylococcus aureus (MRSA); assay: MIC by broth microdilution method; type: cell-based
Protocol: (§1) The MIC was determined by the broth microdilution method. […] Stock solutions were serially diluted (2-fold) in sterile Müeller Hinton broth (MHB) with a dilution range of 0.125 to 150 µg/mL. Overnight culture turbidity was adjusted equivalent to the 0.5 McFarland standard and then diluted to give a final concentration equivalent to 10^6 CFU/mL [30]. One hundred microliters of the adjusted bacterial culture were added to an equal volume of the tested dilutions in a 96-well microtiter plate. The plates were then incubated at 37 °C for 24 h.
(§2) The MIC was recorded as the lowest concentration of an antimicrobial agent, which gave no visible growth. […] The experiment was conducted in triplicate. The mean as well as standard deviation were recorded.

Staphylococcus aureus = assay: MIC by broth microdilution method; type: cell-based; details: Staphylococcus aureus (ATCC® 25922)
Protocol: as §1, §2

RBCs = details: cited from earlier work
human leukocyte elastase = molecular target: T1, human leukocyte elastase (Homo sapiens, UniProt P08246); assay: Anti-elastase assay; type: biochemical
T1 construct: purchased Nawah Scientific Inc., Cairo, Egypt
T1 sequence (P08246 30-267): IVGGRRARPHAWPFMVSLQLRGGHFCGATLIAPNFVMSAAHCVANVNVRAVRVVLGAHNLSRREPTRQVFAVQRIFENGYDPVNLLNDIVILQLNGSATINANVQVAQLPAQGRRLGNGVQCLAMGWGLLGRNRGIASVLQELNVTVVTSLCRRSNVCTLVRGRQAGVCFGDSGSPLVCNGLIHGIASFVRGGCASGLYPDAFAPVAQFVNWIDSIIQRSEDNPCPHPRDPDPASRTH
Protocol: The anti-elastase, anti-collagenase, and anti-tyrosinase activities were assessed following the method reported by Mostafa et al. [32]. […] For the anti-elastase assay, human leukocyte elastase (1 µg/mL) was incubated with N-2-hydroxyethylpiperazine-N-2-ethane sulfonic acid (HEPES) buffer (pH 7.5). Each of the tested samples or the standard inhibitor N-Methoxysuccinyl-Ala-Ala-Pro-chloromethyl ketone (1.4 mg/mL) was added into the 96-well plate for 20 min at 25 °C before the addition of 100 µL substrate of 1 mM N-Methoxysuccinyl-Ala-Ala-Pro-Val-p-nitroanilide. Afterward, the optical density was measured after 40 min of incubation at 405 nm against a blank well lacking the test sample/inhibitor. Various concentrations of the tested samples (25–300 µg/mL) were used.
Moreover, in vitro skin-related enzyme inhibitory assays were carried out in triplicates, and results were expressed as mean ± standard deviation. A non-linear regression curve was used to calculate IC50. An unpaired t-test was used for statistical comparison between the two groups. p < 0.05 is considered statistically significant. […]

[4] = susceptible ≤4 µg/mL, resistant ≥8 µg/mL

CC(=O)NC[C@H]1CN(c2ccc(N3CCOCC3)c(F)c2)C(=O)O1 [LNZ, Linezolid]
percentage LNZ released [1]: ~98 ± 0.5%
Anti-Tyrosinase IC50 (mushroom tyrosinase; +ve control = kojic acid): 363.50 ± 2.08 mg/L
Anti-Tyrosinase % Inhibition (mushroom tyrosinase; samples tested 75–500 µg/mL, concentration of this value not stated, +ve control = kojic acid (1.4 mg/mL)): 65.00 ± 1.63%
Anti-Collagenase IC50 [2]: 335.34 ± 2.09 mg/L
Minimum Inhibitory Concentration (MIC) ([3]; 37 °C, 24 h): 4 ± 0.00 mg/L
MIC ([3]; Staphylococcus aureus, 37 °C, 24 h, read-out: Minimum Inhibitory Concentration (MIC)): 4 mg/L (≈ 11.9 µM)
susceptibility class (CLSI breakpoints) [3, 4]: S (S: sensitive)
MIC (Staphylococcus aureus; ATCC25922, 37 °C, 24 h, read-out: Minimum Inhibitory Concentration (MIC)): 4 mg/L (≈ 11.9 µM)
Minimum Inhibitory Concentration (MIC) (Staphylococcus aureus; 37 °C, 24 h): 4 ± 0.00 mg/L
susceptibility class (CLSI breakpoints) (Staphylococcus aureus; [4]): S (S: sensitive)
hemolysis percentage (RBCs): 14%
IC50 (human leukocyte elastase; +ve control = N-Methoxysuccinyl-Ala-Ala-Pro-chloromethyl ketone, read-out: Anti-Elastase IC50 (µg/mL) (converted)): 170 µM
Anti-Elastase % Inhibition (human leukocyte elastase; samples tested 25–300 µg/mL, concentration of this value not stated, +ve control = N-Methoxysuccinyl-Ala-Ala-Pro-chloromethyl ketone (1.4 mg/mL)): 88.00 ± 1.35%
